For assay [1], the target named is T1, Histidine--tRNA ligase (Leishmania infantum, UniProt A4I591).
T1 sequence (A4I591 whole entry): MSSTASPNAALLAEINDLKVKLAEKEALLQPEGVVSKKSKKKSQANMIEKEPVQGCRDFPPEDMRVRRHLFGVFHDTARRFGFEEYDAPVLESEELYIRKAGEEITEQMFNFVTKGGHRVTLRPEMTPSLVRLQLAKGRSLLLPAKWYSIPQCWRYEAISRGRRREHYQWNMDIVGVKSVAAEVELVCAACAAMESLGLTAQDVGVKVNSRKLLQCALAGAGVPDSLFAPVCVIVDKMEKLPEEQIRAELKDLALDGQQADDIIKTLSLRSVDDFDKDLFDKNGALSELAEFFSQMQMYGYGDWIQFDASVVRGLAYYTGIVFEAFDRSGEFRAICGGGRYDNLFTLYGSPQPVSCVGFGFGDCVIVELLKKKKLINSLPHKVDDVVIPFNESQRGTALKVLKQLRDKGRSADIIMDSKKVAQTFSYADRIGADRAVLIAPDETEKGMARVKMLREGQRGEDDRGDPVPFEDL
Nature of the assay: Leishmania infantum Histidine tRNA synthetase (LdHisRS). Format: functional.

Assay [2] has as its target T2, Aspartate--tRNA(Asp/Asn) ligase (Mycobacterium tuberculosis (strain ATCC 25618 / H37Rv), UniProt P9WFW3).
T2 sequence (P9WFW3 whole entry): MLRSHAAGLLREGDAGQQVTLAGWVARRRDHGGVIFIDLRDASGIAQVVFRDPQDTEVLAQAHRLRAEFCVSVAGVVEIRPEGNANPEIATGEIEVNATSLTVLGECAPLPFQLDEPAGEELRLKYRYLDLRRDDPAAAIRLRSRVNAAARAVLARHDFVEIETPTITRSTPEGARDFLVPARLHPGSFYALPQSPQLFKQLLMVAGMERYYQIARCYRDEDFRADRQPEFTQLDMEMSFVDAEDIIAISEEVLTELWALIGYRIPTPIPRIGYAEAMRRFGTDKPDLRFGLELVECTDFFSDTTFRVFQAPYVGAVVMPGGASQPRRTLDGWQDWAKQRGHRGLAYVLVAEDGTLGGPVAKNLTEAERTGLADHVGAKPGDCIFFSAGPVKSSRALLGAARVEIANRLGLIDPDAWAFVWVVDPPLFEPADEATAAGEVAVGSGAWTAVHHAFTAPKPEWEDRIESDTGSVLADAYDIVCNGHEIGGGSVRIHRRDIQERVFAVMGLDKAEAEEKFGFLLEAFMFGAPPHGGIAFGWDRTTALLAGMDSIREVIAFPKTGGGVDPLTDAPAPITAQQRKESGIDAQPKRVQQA
Nature of the assay: Assay for Asp RNA synthetase-1 from Mycobacterium tuberculosis. Format: functional.

The target of assay [3] is T3, Ubiquitin-activating enzyme e1, putative (Leishmania donovani (strain BPK282A1), UniProt E9BSI1).
T3 sequence (E9BSI1 whole entry): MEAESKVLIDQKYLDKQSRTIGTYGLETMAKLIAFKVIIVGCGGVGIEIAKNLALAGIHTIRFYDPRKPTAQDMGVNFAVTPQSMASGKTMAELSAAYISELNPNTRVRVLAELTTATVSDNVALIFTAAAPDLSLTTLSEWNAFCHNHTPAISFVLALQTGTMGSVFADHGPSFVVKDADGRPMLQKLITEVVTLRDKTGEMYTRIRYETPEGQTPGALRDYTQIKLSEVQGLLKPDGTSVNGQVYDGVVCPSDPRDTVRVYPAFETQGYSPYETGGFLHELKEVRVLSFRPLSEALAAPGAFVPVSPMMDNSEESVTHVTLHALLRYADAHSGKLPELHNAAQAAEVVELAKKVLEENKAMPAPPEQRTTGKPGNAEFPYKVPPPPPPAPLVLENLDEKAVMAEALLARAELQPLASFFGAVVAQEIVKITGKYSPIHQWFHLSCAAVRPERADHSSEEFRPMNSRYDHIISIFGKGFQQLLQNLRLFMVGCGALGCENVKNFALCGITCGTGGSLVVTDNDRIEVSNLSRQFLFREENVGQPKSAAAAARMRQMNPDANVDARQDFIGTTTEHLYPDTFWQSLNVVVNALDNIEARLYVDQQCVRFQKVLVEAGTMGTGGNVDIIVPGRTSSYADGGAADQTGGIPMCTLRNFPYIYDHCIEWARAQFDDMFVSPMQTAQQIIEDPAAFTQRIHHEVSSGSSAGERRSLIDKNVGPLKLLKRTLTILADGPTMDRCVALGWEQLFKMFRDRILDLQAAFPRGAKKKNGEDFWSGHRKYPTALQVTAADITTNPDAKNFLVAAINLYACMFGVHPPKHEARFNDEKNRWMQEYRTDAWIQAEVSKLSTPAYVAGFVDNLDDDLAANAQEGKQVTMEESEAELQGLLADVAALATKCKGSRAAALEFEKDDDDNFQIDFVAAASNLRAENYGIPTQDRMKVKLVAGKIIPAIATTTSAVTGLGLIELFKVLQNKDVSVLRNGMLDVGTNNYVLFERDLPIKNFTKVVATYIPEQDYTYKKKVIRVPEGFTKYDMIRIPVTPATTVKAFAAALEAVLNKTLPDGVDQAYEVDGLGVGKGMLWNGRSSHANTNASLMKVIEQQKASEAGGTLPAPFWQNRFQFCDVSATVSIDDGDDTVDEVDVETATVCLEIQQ
Nature of the assay: Leishmania donovani Ubiquitin Activating Enzyme (LdE1). Format: functional.

Assay [4] can be described thus: microbe, parasite or virus in culture. The settings on record: Mycobacterium tuberculosis, 96 h, read-out: pIC50 (converted).
The nature of assay [5]: microbe, parasite or virus in culture. To be noted: Mycobacterium tuberculosis, 72 h, read-out: pIC50 (converted).
Another assay deals with Lysine--tRNA ligase (Plasmodium falciparum (isolate 3D7), UniProt Q8IDJ8). Nature of the assay: Pf-KRS-1 (Lysyl-RNA Synthetase-1, KRS-1, cytosolic KRS) from Plasmodium falciparum. Inhibitor assay, 384 well plate, luminescence read. It is filed as functional.
Assay [6] has as its target T4, Coenzyme A biosynthesis bifunctional protein CoaBC (Mycobacterium tuberculosis (strain ATCC 25618 / H37Rv), UniProt P9WNZ1).
T4 sequence (P9WNZ1 whole entry): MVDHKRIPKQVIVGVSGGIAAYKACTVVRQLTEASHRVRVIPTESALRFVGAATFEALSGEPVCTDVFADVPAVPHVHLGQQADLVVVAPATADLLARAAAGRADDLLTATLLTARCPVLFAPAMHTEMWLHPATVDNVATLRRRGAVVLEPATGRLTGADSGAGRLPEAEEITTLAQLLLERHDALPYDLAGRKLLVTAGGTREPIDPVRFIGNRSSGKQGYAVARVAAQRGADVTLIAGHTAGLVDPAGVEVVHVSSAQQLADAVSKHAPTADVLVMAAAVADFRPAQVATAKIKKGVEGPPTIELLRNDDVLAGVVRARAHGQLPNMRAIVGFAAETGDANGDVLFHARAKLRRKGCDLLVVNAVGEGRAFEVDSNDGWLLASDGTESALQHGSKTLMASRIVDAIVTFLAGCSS
Nature of the assay: Biomol Green assay for MtCoaBC inhibitor, OD650 read. Format: functional.

The target in assay [7] is T5, Histidine--tRNA ligase (Trypanosoma cruzi (strain CL Brener), UniProt Q4DA54).
T5 sequence (Q4DA54 whole entry): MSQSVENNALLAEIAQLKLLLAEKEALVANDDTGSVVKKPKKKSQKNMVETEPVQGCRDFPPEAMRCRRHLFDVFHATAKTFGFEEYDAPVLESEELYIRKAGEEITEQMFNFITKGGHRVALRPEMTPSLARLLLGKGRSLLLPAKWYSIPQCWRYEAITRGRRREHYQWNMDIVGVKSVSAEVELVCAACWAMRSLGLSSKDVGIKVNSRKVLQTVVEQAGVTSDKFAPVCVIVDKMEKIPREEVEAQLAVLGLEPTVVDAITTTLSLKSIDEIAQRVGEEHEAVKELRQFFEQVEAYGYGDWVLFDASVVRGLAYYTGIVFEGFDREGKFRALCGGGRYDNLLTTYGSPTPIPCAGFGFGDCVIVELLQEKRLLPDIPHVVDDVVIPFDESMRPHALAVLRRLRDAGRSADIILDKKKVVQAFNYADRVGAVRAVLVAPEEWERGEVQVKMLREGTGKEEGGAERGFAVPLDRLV
Nature of the assay: Trypanosoma cruzi histidyl tRNA synthetase (Tc-HisRS). Format: functional.

Assay [8] in a line: To identify inhibition of the IFN signalling (Jak-Stat) pathway via expression of an eGFP reporter gene under the control of an IFN-stimulated response element (ISRE) containing MxA promoter. Format: functional, Homo sapiens. (A reporter such as luciferase makes a cellular process visible.)
For assay [9], the target named is Protein translocase subunit SecA (Escherichia coli (strain K12), UniProt P10408). Nature of the assay: Assay to Identify E. coli SecA ATPase Inhibitors. It is filed as functional.
In another assay the test system is Schistosoma mansoni. Nature of the assay: High throughput screening of compounds against Schistosoma mansoni motility. It is filed as functional. Also noted: dose or concentration left out as unconfirmed.
The target of another assay is Tryptophan--tRNA ligase (Mycobacterium tuberculosis (strain ATCC 25618 / H37Rv), UniProt P9WFT3). Nature of the assay: Biochemical assay for Mt-TrpRS. Format: functional.

Values joined by “and” are separate entries in the source; they are usually repeats but may differ in a detail not shown here. Equal entries are not always repeated.

Sequence of Lysine--tRNA ligase (Q8IDJ8 whole entry): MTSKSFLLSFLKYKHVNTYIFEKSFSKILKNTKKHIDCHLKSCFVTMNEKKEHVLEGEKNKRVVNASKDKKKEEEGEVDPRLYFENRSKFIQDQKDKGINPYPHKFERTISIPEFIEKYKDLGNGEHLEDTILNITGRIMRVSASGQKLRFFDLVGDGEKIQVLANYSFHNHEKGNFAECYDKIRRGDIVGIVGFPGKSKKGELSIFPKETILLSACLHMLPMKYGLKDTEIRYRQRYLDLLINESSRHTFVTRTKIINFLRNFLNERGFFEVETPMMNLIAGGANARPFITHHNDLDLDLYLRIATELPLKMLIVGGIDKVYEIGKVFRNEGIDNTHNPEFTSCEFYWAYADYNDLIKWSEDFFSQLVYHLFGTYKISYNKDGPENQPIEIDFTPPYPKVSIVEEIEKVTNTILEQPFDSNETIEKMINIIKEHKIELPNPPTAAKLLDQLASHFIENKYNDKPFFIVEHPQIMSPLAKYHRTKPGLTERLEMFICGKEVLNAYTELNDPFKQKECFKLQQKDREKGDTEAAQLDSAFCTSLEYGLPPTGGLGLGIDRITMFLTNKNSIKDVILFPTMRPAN
Sequence of Protein translocase subunit SecA (P10408 whole entry): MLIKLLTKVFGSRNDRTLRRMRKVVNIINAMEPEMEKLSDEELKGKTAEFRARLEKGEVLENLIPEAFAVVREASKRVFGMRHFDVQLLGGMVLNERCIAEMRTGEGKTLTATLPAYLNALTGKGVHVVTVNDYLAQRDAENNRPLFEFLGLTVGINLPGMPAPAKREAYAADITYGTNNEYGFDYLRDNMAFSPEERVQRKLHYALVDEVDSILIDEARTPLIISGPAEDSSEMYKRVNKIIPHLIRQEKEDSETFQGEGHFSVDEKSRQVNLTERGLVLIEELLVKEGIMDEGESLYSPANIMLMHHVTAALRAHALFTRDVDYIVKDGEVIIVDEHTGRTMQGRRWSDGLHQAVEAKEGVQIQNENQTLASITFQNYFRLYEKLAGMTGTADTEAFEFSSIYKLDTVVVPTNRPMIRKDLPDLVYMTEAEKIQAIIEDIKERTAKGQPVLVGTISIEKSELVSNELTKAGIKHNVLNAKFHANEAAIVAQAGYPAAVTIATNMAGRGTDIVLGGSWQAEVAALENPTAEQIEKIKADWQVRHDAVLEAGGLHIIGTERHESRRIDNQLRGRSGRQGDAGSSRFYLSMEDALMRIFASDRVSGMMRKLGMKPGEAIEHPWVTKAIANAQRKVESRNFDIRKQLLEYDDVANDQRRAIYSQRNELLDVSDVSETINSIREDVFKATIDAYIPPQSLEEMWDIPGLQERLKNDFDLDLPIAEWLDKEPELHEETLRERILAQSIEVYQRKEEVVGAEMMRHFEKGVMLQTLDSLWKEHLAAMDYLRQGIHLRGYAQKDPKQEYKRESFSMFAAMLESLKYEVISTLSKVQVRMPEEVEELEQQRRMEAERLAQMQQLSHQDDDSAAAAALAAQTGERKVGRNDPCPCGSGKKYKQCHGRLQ
Sequence of Tryptophan--tRNA ligase (P9WFT3 whole entry): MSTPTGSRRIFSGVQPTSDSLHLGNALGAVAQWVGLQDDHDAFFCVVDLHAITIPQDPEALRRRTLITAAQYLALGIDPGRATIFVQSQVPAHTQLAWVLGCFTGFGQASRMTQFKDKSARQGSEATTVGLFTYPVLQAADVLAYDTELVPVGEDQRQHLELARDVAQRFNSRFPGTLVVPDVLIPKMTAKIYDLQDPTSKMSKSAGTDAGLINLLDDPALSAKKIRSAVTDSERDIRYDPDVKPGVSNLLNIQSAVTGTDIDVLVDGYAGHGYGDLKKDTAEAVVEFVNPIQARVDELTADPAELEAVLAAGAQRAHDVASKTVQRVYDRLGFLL

Regarding `Cc1ccc(-c2nc(CN3CCc4nn(C)c(=O)cc4C3)co2)cc1`, the IC50 was 14.2 µM and 25.1 µM on Histidine--tRNA ligase [1]; > 100 µM and 52.7 µM in [2]; more than 100 µM in [3].
Turning to `CCC(C)CNc1ccc2oc(COC)nc2c1` (configuration not stated), the IC50 in [4] was 34.4 µM; against Histidine--tRNA ligase [1] it was 11.1 µM and 14.1 µM; in [2] it was 36.7 µM and 47.3 µM; in assay [5], 49.1 µM; against Lysine--tRNA ligase it was more than 50.1 µM; in assay [3], more than 100 µM.
Consider `COCc1nc2cc(NCc3ccncc3)ccc2o1`, for which the IC50 against Histidine--tRNA ligase [1] was 4.22 µM and 3.13 µM; in assay [2], 11.6 µM and 26.4 µM; in assay [6], more than 50.1 µM; in assay [3] it was 50.3 µM and 60.4 µM.
With `Cn1cc(NC(=O)N2CCC(c3ccccc3)CC2)ccc1=O`, the IC50 on Histidine--tRNA ligase [1] is 2.98 µM and 3.9 µM; in assay [2], 13.6 µM and 15.7 µM; against Lysine--tRNA ligase it was more than 50.1 µM; at Histidine--tRNA ligase [7], 63 µM and 58.7 µM; in assay [3], more than 100 µM.
`Cn1cc(NS(=O)(=O)c2ccc(OC(F)(F)F)cc2)ccc1=O`: the IC50 at Histidine--tRNA ligase [1] was 25.5 µM and 16.7 µM; in assay [2], 98.4 µM and 74.5 µM; against Lysine--tRNA ligase, more than 50.1 µM. For the same compound, in assay [8], the negative-log IC50 (pIC50) was 5.067 and 4.969.
With `Cn1nc2c(cc1=O)CN(Cc1coc(-c3cccs3)n1)CC2`, the IC50 on Histidine--tRNA ligase [1] was 13.1 µM and 11.1 µM; in [2] it was 51.7 µM and 65.4 µM; in assay [3] it was more than 100 µM.
Take `CCCN(C(=O)c1ccccn1)c1nc2c(s1)CCc1c-2cnn1C`: the IC50 at Histidine--tRNA ligase [1] was 18.7 µM and 14.4 µM; in assay [2] it was 27.3 µM and 35.3 µM; against Lysine--tRNA ligase it was more than 50.1 µM; in assay [3] it was more than 100 µM.
Take `CNc1nc2c(s1)C(c1c(F)cccc1Cl)CC(=O)N2` (configuration not stated): the IC50 in assay [9] is 20.4 µM and 24.2 µM; against Histidine--tRNA ligase [1], 7.84 µM and 5.67 µM; in [2], 46.5 µM and 15.4 µM; at Lysine--tRNA ligase, more than 50.1 µM; against Histidine--tRNA ligase [7], 20.4 µM and 19.2 µM.
As to `COc1cccc(C2CC(=O)Nc3nc(N)sc32)c1OC` (configuration not stated), the IC50 in assay [4] was 44.8 µM; in assay [9], 9.52 µM and 9.23 µM; on Histidine--tRNA ligase [1] it was 1.21 µM and 1.37 µM; in assay [2], 2.74 µM and 8.57 µM; in assay [5], 42.2 µM; against Lysine--tRNA ligase, more than 50.1 µM. Besides, the IC50 at Histidine--tRNA ligase [7] is 3.98 µM and 3.84 µM; in assay [3], 45.3 µM and 45 µM.
Consider `Cc1cc(CN2CCc3nn(C)c(=O)cc3C2)on1`, for which, in the assay with Schistosoma mansoni, the “Percent Effect” value is given as -21.81%. For the same compound, the IC50 on Histidine--tRNA ligase [1] was 35.6 µM and 40.1 µM; in [2], more than 100 µM; against Lysine--tRNA ligase, more than 50.1 µM; against Tryptophan--tRNA ligase it was more than 195 µM.
Turning to `Cn1nc2c(cc1=O)CN(Cc1nnc(C3CC3)o1)CC2`, the IC50 on Histidine--tRNA ligase [1] was 17.5 µM and 14.6 µM; in [2], 77.5 µM and > 100 µM; in [6], more than 30.2 µM; at Lysine--tRNA ligase it was more than 50.1 µM; in assay [3], more than 100 µM.

A word on the pIC50: it is −log10 of the IC50, conventionally taken in molar units.
